Data reported in ChEMBL document CHEMBL1909046, “DrugMatrix in vitro pharmacology data”.

What was measured:
[1] = target: T1, Glucocorticoid receptor (Homo sapiens, UniProt P04150); details: hela s3; note: in other assays of this panel Not Active means under 50% inhibition at 10 µM
T1 sequence (P04150 whole entry): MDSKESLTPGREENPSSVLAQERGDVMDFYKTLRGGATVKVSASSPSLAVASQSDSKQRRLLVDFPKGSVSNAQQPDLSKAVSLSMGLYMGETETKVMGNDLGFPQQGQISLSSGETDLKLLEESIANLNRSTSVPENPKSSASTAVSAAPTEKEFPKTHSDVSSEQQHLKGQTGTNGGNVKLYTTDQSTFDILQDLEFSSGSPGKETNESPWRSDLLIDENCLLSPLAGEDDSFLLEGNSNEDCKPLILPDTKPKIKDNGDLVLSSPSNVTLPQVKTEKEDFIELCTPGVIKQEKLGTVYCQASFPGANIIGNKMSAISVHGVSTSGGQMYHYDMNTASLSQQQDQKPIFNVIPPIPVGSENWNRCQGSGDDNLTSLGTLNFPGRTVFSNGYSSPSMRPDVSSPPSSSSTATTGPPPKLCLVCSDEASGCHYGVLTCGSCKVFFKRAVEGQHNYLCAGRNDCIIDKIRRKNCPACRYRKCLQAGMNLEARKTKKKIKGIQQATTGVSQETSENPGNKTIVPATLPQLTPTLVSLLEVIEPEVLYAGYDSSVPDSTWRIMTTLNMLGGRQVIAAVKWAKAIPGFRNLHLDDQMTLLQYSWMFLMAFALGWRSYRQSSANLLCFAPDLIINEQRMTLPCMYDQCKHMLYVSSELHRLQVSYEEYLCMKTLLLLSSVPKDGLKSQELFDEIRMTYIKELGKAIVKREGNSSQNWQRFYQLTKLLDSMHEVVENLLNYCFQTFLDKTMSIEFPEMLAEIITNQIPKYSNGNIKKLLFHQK

[2] = target: T2, Alpha-2A adrenergic receptor (Homo sapiens, UniProt P08913); assay type: cell membranes, Sf9, Membrane; details: sf9; note: in other assays of this panel Not Active means under 50% inhibition at 10 µM
T2 sequence (P08913 whole entry): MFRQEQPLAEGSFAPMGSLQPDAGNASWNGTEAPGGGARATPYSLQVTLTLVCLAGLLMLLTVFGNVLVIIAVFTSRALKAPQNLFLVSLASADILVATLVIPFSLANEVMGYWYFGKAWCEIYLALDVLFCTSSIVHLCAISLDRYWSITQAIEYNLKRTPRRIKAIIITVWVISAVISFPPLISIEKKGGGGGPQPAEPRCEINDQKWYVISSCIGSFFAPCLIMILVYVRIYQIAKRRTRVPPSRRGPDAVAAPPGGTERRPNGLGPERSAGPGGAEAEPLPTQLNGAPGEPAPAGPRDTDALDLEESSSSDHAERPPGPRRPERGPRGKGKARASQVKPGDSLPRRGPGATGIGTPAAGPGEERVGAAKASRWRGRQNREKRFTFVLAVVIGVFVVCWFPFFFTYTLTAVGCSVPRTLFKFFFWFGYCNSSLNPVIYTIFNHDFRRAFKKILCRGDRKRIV

[3] = DRUGMATRIX: ATPase, Na+/K+ enzyme inhibition (substrate: ATP); assay type: tissue-based, Sus scrofa, Heart; details: Not Active = under 50% inhibition at 10 µM
[4] = target: T3, 5-hydroxytryptamine receptor 2C (Homo sapiens, UniProt P28335); assay: DRUGMATRIX: Serotonin (5-Hydroxytryptamine) 5-HT2C radioligand binding (ligand: [3H] Mesulergine); assay type: cell membranes, CHO-K1, Membrane; details: cho-k1; Not Active = under 50% inhibition at 10 µM
T3 sequence (P28335 whole entry): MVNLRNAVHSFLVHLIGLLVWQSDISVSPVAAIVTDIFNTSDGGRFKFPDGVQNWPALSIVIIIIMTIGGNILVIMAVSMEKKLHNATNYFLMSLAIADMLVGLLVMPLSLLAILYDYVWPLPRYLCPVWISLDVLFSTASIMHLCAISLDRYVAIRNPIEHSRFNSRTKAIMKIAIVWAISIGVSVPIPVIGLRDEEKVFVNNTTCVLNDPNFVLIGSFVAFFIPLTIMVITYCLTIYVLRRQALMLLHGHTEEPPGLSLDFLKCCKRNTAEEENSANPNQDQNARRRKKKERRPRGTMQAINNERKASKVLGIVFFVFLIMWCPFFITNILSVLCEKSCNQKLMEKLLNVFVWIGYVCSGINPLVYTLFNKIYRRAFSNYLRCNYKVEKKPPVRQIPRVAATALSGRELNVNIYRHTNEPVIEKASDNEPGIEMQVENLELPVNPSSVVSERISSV

[5] = target: T4, Estrogen receptor (Homo sapiens, UniProt P03372); details: sf9; note: in other assays of this panel Not Active means under 50% inhibition at 10 µM
T4 sequence (P03372 whole entry): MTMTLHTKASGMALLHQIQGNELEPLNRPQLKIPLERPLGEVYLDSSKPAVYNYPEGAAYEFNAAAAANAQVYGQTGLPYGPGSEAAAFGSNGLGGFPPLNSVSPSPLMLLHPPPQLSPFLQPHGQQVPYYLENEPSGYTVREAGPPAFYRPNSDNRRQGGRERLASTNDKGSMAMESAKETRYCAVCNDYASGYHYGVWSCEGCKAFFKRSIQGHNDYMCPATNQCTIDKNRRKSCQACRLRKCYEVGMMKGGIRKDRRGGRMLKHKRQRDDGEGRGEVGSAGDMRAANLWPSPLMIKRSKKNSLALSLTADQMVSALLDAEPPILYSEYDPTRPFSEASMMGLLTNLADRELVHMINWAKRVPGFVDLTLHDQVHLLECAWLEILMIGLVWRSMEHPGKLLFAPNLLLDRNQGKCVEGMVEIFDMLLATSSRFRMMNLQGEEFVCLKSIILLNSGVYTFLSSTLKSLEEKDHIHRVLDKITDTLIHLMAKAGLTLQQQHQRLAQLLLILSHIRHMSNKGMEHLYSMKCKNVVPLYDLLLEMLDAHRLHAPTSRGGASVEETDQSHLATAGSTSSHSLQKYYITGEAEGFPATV

[6] = target: Histamine H2 receptor (Homo sapiens, UniProt P25021); assay type: cell membranes, CHO-K1, Membrane; note: in other assays of this panel Not Active means under 50% inhibition at 10 µM
Chain of Histamine H2 receptor (P25021 whole entry): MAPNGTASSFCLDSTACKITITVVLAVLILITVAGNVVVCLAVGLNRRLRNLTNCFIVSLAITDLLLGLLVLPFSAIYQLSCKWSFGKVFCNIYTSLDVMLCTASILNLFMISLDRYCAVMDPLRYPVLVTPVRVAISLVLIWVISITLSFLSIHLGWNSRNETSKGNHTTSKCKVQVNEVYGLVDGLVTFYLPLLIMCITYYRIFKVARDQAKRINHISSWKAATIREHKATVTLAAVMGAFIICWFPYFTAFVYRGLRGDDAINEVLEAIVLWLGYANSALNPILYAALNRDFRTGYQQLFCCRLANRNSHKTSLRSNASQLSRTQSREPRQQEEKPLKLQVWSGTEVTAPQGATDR

[7] = target: T5, Calcitonin receptor (Homo sapiens, UniProt P30988); assay type: cell membranes, Membrane; details: t47d; note: in other assays of this panel Not Active means under 50% inhibition at 10 µM
T5 sequence (P30988 whole entry): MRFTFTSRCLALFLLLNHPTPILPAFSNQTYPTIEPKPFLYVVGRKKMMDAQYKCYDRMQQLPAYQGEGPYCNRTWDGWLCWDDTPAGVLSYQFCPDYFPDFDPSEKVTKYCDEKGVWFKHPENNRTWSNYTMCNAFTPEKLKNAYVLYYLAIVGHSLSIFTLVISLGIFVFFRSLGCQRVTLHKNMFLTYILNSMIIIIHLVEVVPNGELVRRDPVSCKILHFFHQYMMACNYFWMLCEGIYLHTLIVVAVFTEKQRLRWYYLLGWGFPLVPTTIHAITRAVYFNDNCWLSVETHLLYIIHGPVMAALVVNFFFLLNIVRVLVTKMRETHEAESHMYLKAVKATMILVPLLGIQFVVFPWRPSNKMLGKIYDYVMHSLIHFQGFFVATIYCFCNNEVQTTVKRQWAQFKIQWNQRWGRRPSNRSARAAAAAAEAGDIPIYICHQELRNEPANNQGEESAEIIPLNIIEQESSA

Row | Compound | IC50 [1] | IC50 [2] | IC50 [3] | Ki [3] | IC50 [4] | IC50 [5] | IC50 ([6]; cho-k1) | IC50 [7] | IC50 ([6]; read-out: IC50) [nM] | Ki ([6]; read-out: Ki) [nM] | Ki [1] | Ki [2] | Ki [4] | Ki [5] | Ki ([6]; cho-k1) | Ki [7]
1 | CN(CCOc1ccc(C[C@H](Nc2ccccc2C(=O)c2ccccc2)C(=O)O)cc1)c1ccccn1 | Not Active | Not Active | Not Active | Not Active | Not Active | Not Active | Not Active | Not Active | – | – | – | – | – | – | – | –
2 | NC(=O)NC(=O)Cc1ccccc1 [PHENACEMIDE] | Not Active | Not Active | Not Active | Not Active | Not Active | Not Active | Not Active | Not Active | – | – | – | – | – | – | – | –
3 | NC(N)=Nc1nc(CSCCC(N)=NS(N)(=O)=O)cs1 [FAMOTIDINE] | Not Active | Not Active | Not Active | Not Active | Not Active | Not Active | – | Not Active | 42 | 41 | – | – | – | – | – | –
4 | ClC1=C(Cl)[C@]2(Cl)[C@@H]3[C@@H]4C[C@@H]([C@H]5O[C@@H]45)[C@@H]3[C@@]1(Cl)C2(Cl)Cl [DIELDRIN] | Not Active | Not Active | Not Active | Not Active | Not Active | Not Active | Not Active | Not Active | – | – | – | – | – | – | – | –
5 | CC(=O)[C@]1(O)Cc2c(O)c3c(c(O)c2[C@@H](O[C@H]2C[C@H](N)[C@H](O)[C@H](C)O2)C1)C(=O)c1ccccc1C3=O [IDARUBICIN] | Not Active | Not Active | Not Active | Not Active | Not Active | Not Active | Not Active | Not Active | – | – | – | – | – | – | – | –
6 | COPPER(II) OXIDE | Not Active | Not Active | Not Active | Not Active | Not Active | Not Active | Not Active | Not Active | – | – | Not Active | Not Active | Not Active | Not Active | Not Active | Not Active
7 | CCO [ALCOHOL] | Not Active | Not Active | Not Active | Not Active | Not Active | Not Active | Not Active | Not Active | – | – | – | – | – | – | – | –
8 | CC12CCC(CC1=O)C2(C)C (stereo unspecified) [CAMPHOR] | Not Active | Not Active | Not Active | Not Active | Not Active | Not Active | Not Active | Not Active | – | – | – | – | – | – | – | –
